This is an account of results in patent US7935359B2, “Use of L 2-thiohistidine or one of its derivatives as a depigmenting agent in cosmetics” (LVMH Recherche, priority 2006, dated 2011).

For this test, the system named is melanocytes of separated mammary epidermis. Kind of test: Depigmenting activity on separated epidermis incubated with L-DOPA/active principle solution, optical microscopy and counting of melanin grains. Type of test: cell-based, human. Conditions: for depigmenting activity: separated epidermis, L-DOPA; for grains of melanin counted, Mean: mean of 3 tests. Here is the method: In this Example a quantitative comparative test is carried out on a separated epidermis in order to show the depigmenting activity of L-2-thiohistidine compared with various depigmenting agents known in the prior art, especially kojic acid or ergothioneine, and also compared with a control sample comprising DOPA oxidase.
The procedure of this test is similar to that described in Example II of the LVMH RECHERCHE document FR-A-2,867,384 published on 16 Sep. 2005, to which those skilled in the art may usefully refer and which is incorporated by reference.
Frozen mammary epidermis originating from plastic surgery on a person, reference P148AB39, are separated by incubation in 2N NaBr for 1 h 45 min at 37° C. They were fixed in a formalized fixative, buffered, rinsed and brought into contact with a volume/volume mixture of L-DOPA/active principle solution. After incubation, they were rinsed and mounted between slides and cover slips with mounting medium.
The epidermis were observed by optical microscopy with a magnification of 10.
The depigmenting activity which can be seen in FIGS. 1 to 5 was quantified statistically by counting the grains of melanin over a series of 3 tests. The values are shown in the Table below, in which the values obtained for the Student test are specified for ergothioneine versus L-2-thiohistidine and for kojic acid versus L-2-thiohistidine at the same concentration. The Student test is said to be significant if the value obtained is less than 0.05. Conclusions

For `NC(Cc1c[nH]c(=S)[nH]1)C(=O)O` [L-2-thiohistidine, alpha-amino-2,3-dihydro-2-thioxo-1H-imidazole-4-propanoic acid], where the note is “50 μg”, the “grains of melanin counted, Test 1” value is on record as 162; the “grains of melanin counted, Test 2” value was 178; the “grains of melanin counted, Test 3” value is listed as 176; the “grains of melanin counted, Mean” value was 172. The compound also yielded a depigmenting activity (50 μg/ml) of 60%. Further, where the note is “150 μg”, the “grains of melanin counted, Test 1” value was found to be 102; the “grains of melanin counted, Test 2” value was 115; the “grains of melanin counted, Test 3” value is given as 116; the “grains of melanin counted, Mean” value is reported as 111. The “depigmenting activity compared with reference agents (in words)” value (150 μg/ml, versus kojic acid) is “very good depigmenting activity similar to that of the previously known kojic acid”. The same compound returned a depigmenting activity (150 μg/ml) of 75%. In addition, the “depigmenting activity compared with reference agents (in words)” value (comparable concentration, versus ergothioneine) is “better depigmenting activity than ergothioneine”.

For the compound `O=c1cc(CO)occ1O` [kojic acid, reference compound], for the setting “150 μg”, the “grains of melanin counted, Test 1” value is listed as 124; the “grains of melanin counted, Test 2” value is 137; the “grains of melanin counted, Test 3” value was 138; the “grains of melanin counted, Mean” value came out at 133. The compound further came in with a depigmenting activity (150 μg/ml) of approximately 75%.

As to `C[N+](C)(C)[C@@H](Cc1c[nH]c(=S)[nH]1)C(=O)[O-]` [ergothioneine, reference compound], for the setting “50 μg”, the “grains of melanin counted, Test 1” value is given as 194; the “grains of melanin counted, Test 2” value amounted to 210; the “grains of melanin counted, Test 3” value is on record as 190; the “grains of melanin counted, Mean” value was 198. This compound showed a depigmenting activity (50 μg/ml) of approximately 45%.
